The values that follow come from patent US9655968B2, “Baclofen solution for low-volume therapeutic delivery” (Wayne State University, priority 2007, dated 2017).

Data set [1] can be described thus: Baclofen solubilization study in multivalent physiologic ion (MPI) solution. It is filed as physicochemical. The note with it: aqueous buffer, thermodynamic from solid. On the procedure:
Multivalent physiologic ion solution formation. A solution (A) is produced with 8.66 g NaCl, 0.224 g KCl, 0.206 g CaCl2.2H2O and 0.163 g MgCl2.6H2O dissolving in 500 mL of deionized water. A solution (B) is produced with 0.214 g Na2HPO4.7H2O and 0.027 g NaH2PO4.H2O dissolving in 450 mL of water. The pH is adjusted to 6.0, 6.5, 7.0, 7.3, 7.6 and 8.0 as necessary with either NaOH or H3PO4 and dilution to final volume of 500 mL with deionized water. A final multivalent physiologic ion solution is obtained by mixing equal parts of Solution A and B. pH is tested and adjusted to the desired final pH if necessary. All reagents are available from sources known in the art. […]
Baclofen solubilization study in multivalent physiologic ion solution. […] The aliquots are analyzed by high performance liquid chromatography (HPLC). […] Baclofen concentrations above 4 mg/ml are readily achieved.
Analyses of baclofen solutions to confirm concentrations. Baclofen concentrations of Examples 2 and 3 are determined to confirm soluble levels in MPI or aCSF in the inventive solutions. Baclofen concentrations are quantified by LC/MS/MS using an Applied Biosystems API 400 electrospray triple quadrupole mass spectrometer. […] The transition between 214.1 and 151.2 is used for quantification. […]
Analyses of baclofen solutions to confirm concentrations. […] Baclofen concentrations are determined within 10% of expected values.

For data set [2] the following is noted: over a 10-year period, near neutral pH, room temperature; calculated, Ahuja 1985; cited from earlier work.
For data set [3] the following is noted: cited from earlier work.
The mark [4] stands for this setting: LIORESAL INTRATHECAL product insert.

In brackets after ≈: the same amount, converted by molar mass. Read-outs that look alike come from different tables or passages of the source.

For the molecule `NCC(CC(=O)O)c1ccc(Cl)cc1` (stereo not shown) [Baclofen], the solubility in data set [1] (MPI pH 6.0-8.0, 37° C., aliquots at 2, 5 and 30 min, HPLC, read-out: baclofen concentration achieved in MPI solution) is over 4000 µg/mL. Further, the solubility in data set [1] (rapidly achieved without sonication or excessive agitation, read-out: solubility of baclofen in MPI solution) was found to be 6000 µg/mL (≈ 28.1 mM). Besides, the “degradation of dissolved baclofen” value in data set [2] was “less than 10%”. Moreover, in data set [3] (setting [4]), the solubility in chloroform result is on record as “insoluble”, the solubility in methanol result is listed as “very slightly soluble” and the solubility in water result was “slightly soluble”. The “solubility in aqueous saline solution after extreme heating and intense agitation” value in data set [3] (heating to as much as 100° C., sonication or high speed stirring, US 2006/0009523) is at most 12000 µg/mL. The “baclofen concentration by acid dissolution and back titration method” value in data set [3] (initial dissolution at pH below 3.87, then base added, US 2006/0009523) was about 10 mg/mL. For the same molecule, the maximum saline concentration in data set [3] (saline) is recorded as 2 mg/mL. Also, the “solubility in water or saline (known in the art)” value in data set [3] (water or saline) is “below 2 mg/mL”.
